Test system: ACTH from the pituitary gland
Experiment: ACTH stimulation after oral mifepristone in persons with normal HPA function
Assay type: in vivo, human
Details: oral dose of 300-1500 mg; persons having normal hypothalamic-pituitary-adrenal axis (HPA) function
Method: GRA is administered at a dosage that is sufficient to increase ACTH in the pituitary gland by at least two fold in persons with normal HPA functions. In one embodiment, the GRA is mifepristone. In one embodiment, mifepristone is administered orally to the patient. […] In one embodiment, the GRA is administered at 11 pm the night before IPSS. Following the diagnosis of ACTH dependent Cushing's syndrome, they then undergo IPSS to identify the source of abnormal ACTH secretion, i.e., whether it is pituitary or ectopic. […] Another 0.018 microcatherter is inserted into the peripheral jugular vein. A 5,000 unit bolus of heparin is administered to the veins to prevent venous sinus thrombosis.

Structure (SMILES): CC#C[C@]1(O)CC[C@H]2[C@@H]3CCC4=CC(=O)CCC4=C3[C@@H](c3ccc(N(C)C)cc3)C[C@@]21C [mifepristone, 17-β-hydrox-11-β-(4-dimethyl-aminophenyl)17-α-(1-propynyl)estra-4,9-dien-3-one]
- increase ACTH from the pituitary gland: at least two-fold

Reference: patent US9829495B2, “Method for differentially diagnosing ACTH-dependent Cushing's syndrome” (Corcept Therapeutics, Inc., priority 2015, dated 2017)
